# Measurements: US9790189B2, “Disubstituted 5-fluoro pyrimidine derivatives containing a sulfondiimine group” (Bayer Pharma Aktiengesellschaft, priority 2014, dated 2017)
# Assays:
# A2780 cells = experiment: Proliferation assay, A2780 (crystal violet); assay type: cell-based; conditions: Homo sapiens, 96 h; A2780, 4 days; read-out: Inhibition of A2780 cell proliferation IC50
# Experimental: (§1) Cultivated tumour cells (HeLa, human cervical tumour cells, ATCC CCL-2; NCI-H460, human non-small cell lung carcinoma cells, ATCC HTB-177; A2780, human ovarian carcinoma cells, ECACC #93112519; DU 145, hormone-independent human prostate carcinoma cells, ATCC HTB-81; HeLa-MaTu-ADR, multidrug-resistant human cervical carcinoma cells, EPO-GmbH Berlin; Caco-2, human colorectal carcinoma cells, ATCC HTB-37; B16F10, mouse melanoma cells, ATCC CRL-6475) were plated at a density of 5,000 cells/well (DU145, HeLa-MaTu-ADR), 3,000 cells/well (NCI-H460, HeLa), 2,500 cells/well (A2780), 1,500 cells/well (Caco-2), or 1,000 cells/well (B16F10) in a 96-well multititer plate in 200 μL of their respective growth medium supplemented 10% fetal calf serum. After 24 hours, the cells of one plate (zero-point plate) were stained with crystal violet (see below), while the medium of the other plates was replaced by fresh culture medium (200 μl), to which the test substances were added in various concentrations (0 μM, as well as in the range of 0.001-10 μM; the final concentration of the solvent dimethyl sulfoxide was 0.5%). The cells were incubated for 4 days in the presence of test substances. Cell proliferation was determined by staining the cells with crystal violet: the cells were fixed by adding 20 μl/measuring point of an 11% glutaric aldehyde solution for 15 minutes at room temperature. After three washing cycles of the fixed cells with water, the plates were dried at room temperature. The cells were stained by adding 100 μl/measuring point of a 0.1% crystal violet solution (pH 3.0). After three washing cycles of the stained cells with water, the plates were dried at room temperature. The dye was dissolved by adding 100 μl/measuring point of a 10% acetic acid solution. The extinction was determined by photometry at a wavelength of 595 nm. The change of cell number, in percent, was calculated by normalization of the measured values to the extinction values of the zero-point plate (=0%) and the extinction of the untreated (0 μm) cells (=100%).
# B16F10 cells = experiment: Proliferation assay, B16F10 (crystal violet); assay type: cell-based; conditions: Mus musculus, B16-F10, 96 h; B16F10, 4 days; read-out: Inhibition of B16F10 cell proliferation IC50
# Experimental: as §1
# DU145 cells = experiment: Proliferation assay, DU145 (crystal violet); assay type: cell-based; conditions: Homo sapiens, DU-145, 96 h; DU145, 4 days; read-out: Inhibition of DU145 cell proliferation IC50
# Experimental: as §1
# HeLa-MaTu-ADR cells = experiment: Proliferation assay, HeLa-MaTu-ADR (crystal violet); assay type: cell-based; conditions: Homo sapiens, 96 h, 4 days, read-out: Inhibition of HeLa-MaTu-ADR cell proliferation IC50
# Experimental: as §1
# HeLa cells = experiment: Proliferation assay, HeLa (crystal violet); assay type: cell-based; conditions: Homo sapiens, 96 h, 4 days, read-out: Inhibition of HeLa cell proliferation IC50
# Experimental: as §1
# [1] = Thermodynamic solubility in water from powder (Method 4b); assay type: physicochemical; conditions: aqueous buffer, thermodynamic from solid, phosphate buffer pH 6.5, 24 hrs, room temperature
# Experimental: (§2) 4. Equilibrium Shake Flask Solubility Assays:
# 4b) Thermodynamic Solubility in Water from Powder
# The thermodynamic solubility of compounds in water was determined by an equilibrium shake flask method (see for example: E. H. Kerns, L. Di: Drug-like Properties: Concepts, Structure Design and Methods, 276-286, Burlington, Mass., Academic Press, 2008). A saturated solution of the drug was prepared and the solution was mixed for 24 h to ensure that equilibrium was reached. The solution was centrifuged to remove the insoluble fraction and the concentration of the compound in solution was determined using a standard calibration curve. To prepare the sample, 2 mg solid compound was weighed in a 4 mL glass vial. 1 mL phosphate buffer pH 6.5 was added. The suspension was stirred for 24 hrs at room temperature. The solution was centrifuged afterwards. To prepare the sample for the standard calibration, 2 mg solid sample was dissolved in 30 mL acetonitrile. After sonification the solution was diluted with water to 50 mL. Sample and standards were quantified by HPLC with UV-detection. For each sample two injection volumes (5 and 50 μl) in triplicates were made. Three injection volumes (5 μl, 10 μl and 20 μl) were made for the standard. […]
# The areas of sample- and standard injections as well as the calculation of the solubility value (in mg/l) were determined by using HPLC software (Waters Empower 2 FR).
# [2] = Caco-2 permeation assay (Method 5); assay type: in vitro ADME; conditions: human, pH 7.2, Caco-2, 2 μM test compound, 2 h
# Experimental: Cells were maintained at 37° C. in a humidified 5% CO2 atmosphere. Medium was changed every 2-3 day. Before running the permeation assay, the culture medium was replaced by a FCS-free hepes-carbonate transport buffer (pH 7.2). For assessment of monolayer integrity the transepithelial electrical resistance (TEER) was measured. Test compounds were predissolved in DMSO and added either to the apical or basolateral compartment in final concentration of 2 μM in transport buffer. Before and after 2 h incubation at 37° C. samples were taken from both compartments. Analysis of compound content was done after precipitation with methanol by LC/MS/MS analysis. Permeability (Papp) was calculated in the apical to basolateral (A→B) and basolateral to apical (B→A) directions. […] The efflux ratio basolateral (B) to apical (A) was calculated by dividing the Papp B−A by the Papp A−B. In addition the compound recovery was calculated.
# [3] = Equilibrium shake flask solubility, high throughput from DMSO solution (Method 4a); assay type: physicochemical; conditions: phosphate buffer pH 6.5 with 1% DMSO, aqueous buffer, phosphate buffer pH 6.5, 24 hrs, room temperature
# Source text: as §2
# 4a) High Throughput Determination of Aqueous Drug Solubility (100 mmolar in DMSO)
# The high throughput screening method to determine aqueous drug solubility is based on:
# Thomas Onofrey and Greg Kazan, Performance and correlation of a 96-well high throughput screening method to determine aqueous drug solubility, http://www.millipore.com/publications.nsf/a73664f9f981af8c852569b9005b4eee/e565516fb76e7435852 56da30052db77/$FILE/AN1731EN00.pdf
# The assay was run in a 96-well plate format. Each well was filled with an individual compound.
# All pipetting steps were performed using a robot platform.
# 100 μl of a 10 mmolar solution of drug in DMSO were concentrated by vacuum centrifugation and resolved in 10 μl DMSO. 990 μl phosphate buffer pH 6.5 were added. The content of DMSO amounts to 1%. The multititer plate was put on a shaker and mixed for 24 hrs at room temperature. 150 μl of the suspension were transferred to a filtration plate. After filtration using a vacuum manifold the filtrate was diluted 1:400 and 1:8000. A second microtiter plate with 20 μl of a 10 mM solution of drug in DMSO served for calibration. Two concentrations (0.005 μM and 0.0025 μM) were prepared by dilution in DMSO/water 1:1 and used for calibration. Filtrate and calibration plates were quantified by HPLC-MS/MS.
# Preparation of 0.1 m Phosphate Buffer pH 6.5:
# 61.86 g NaCl and 39.54 mg KH2PO4 were solved in water and filled up to […]. The mixture was diluted 1:10 with water and the pH adjusted to 6.5 by NaOH.
# Materials: • Millipore MultiScreenHTS-HV Plate 0.45 μm
# Chromatographic conditions were as follows: • HPLC column: Ascentis Express C18 2.7 μm 4.6×30 mm • Injection volume: 1 μl • Flow: 1.5 ml/min • Mobile phase: acidic gradient • A: Water/0.05% HCOOH • B: Acetonitrile/0.05% HCOOH • 0 min→95% A 5% B • 0.75 min→5% A 95% B • 2.75 min→5% A 95% B • 2.76 min→95% A 5% B • 3 min→95% A 5% B
# The areas of sample- and calibration injections were determined by using mass spectromety software (AB SCIEX: Discovery Quant 2.1.3. and Analyst 1.6.1). The calculation of the solubility value (in mg/l) was executed by an inhouse developed Excel macro.
# Caco-2 cells = experiment: Proliferation assay, Caco-2 (crystal violet); assay type: cell-based; conditions: Homo sapiens, 96 h; Caco-2, 4 days; read-out: Inhibition of Caco-2 cell proliferation IC50
# Experimental: as §1
# NCI-H460 cells = experiment: Proliferation assay, NCI-H460 (crystal violet); assay type: cell-based; conditions: Homo sapiens, 96 h; NCI-H460, 4 days; read-out: Inhibition of NCI-H460 cell proliferation IC50
# Experimental: as §1
smiles,measurement,setting,value
"COc1cc(F)ccc1-c1nc(Nc2cc(F)cc(CS(C)(=N)=N)c2)ncc1F [Example 1, 5-Fluoro-4-(4-fluoro-2-methoxyphenyl)-N-{3-fluoro-5-[(S-methylsulfonodiimidoyl)methyl]phenyl}pyrimidin-2-amine]",IC50,A2780 cells,201 nM
same,IC50,B16F10 cells,532 nM
same,IC50,DU145 cells,341 nM
same,IC50,HeLa-MaTu-ADR cells,327 nM
same,IC50,HeLa cells,252 nM
same,solubility thermodynamic at 24 h,[1],91 µg/mL
same,"Papp A→B at 2 h, 2 µM",[2]; read-out: Papp A−B (Mari),5 ×10⁻⁶ cm/s
same,"Papp B→A at 2 h, 2 µM",[2]; read-out: Papp B−A (Mari),28 ×10⁻⁶ cm/s
same,solubility thermodynamic at 24 h,[3],155 µg/mL
same,IC50,Caco-2 cells,386 nM
same,IC50,NCI-H460 cells,351 nM
